The text below walks through data of patent US8957078B2, “Compounds useful as inhibitors of ATR kinase” (Vertex Pharmaceuticals Incorporated, priority 2013, dated 2015).

The target in test [1] is T1, ATR kinase (full-length ATR) (Homo sapiens, UniProt Q13535).
T1 construct: in the presence of 5 nM full-length ATR
Put plainly: ATR Inhibition Assay (radioactive-phosphate incorporation). It is filed as biochemical. To be noted: Ki(app); 5 nM full-length ATR, 10 μM ATP, 800 μM target peptide, 25° C. The method, then:
Compounds were screened for their ability to inhibit ATR kinase using a radioactive-phosphate incorporation assay. Assays were carried out in a mixture of 50 mM Tris/HCl (pH 7.5), 10 mM MgCl2 and 1 mM DTT. Final substrate concentrations were 10 μM [γ-33P]ATP (3 mCi 33P ATP/mmol ATP, Perkin Elmer) and 800 μM target peptide (ASELPASQPQPFSAKKK (SEQ. ID NO: 1)).
Assays were carried out at 25° C. in the presence of 5 nM full-length ATR. An assay stock buffer solution was prepared containing all of the reagents listed above, with the exception of ATP and the test compound of interest. 13.5 μL of the stock solution was placed in a 96 well plate followed by addition of 2 μL of DMSO stock containing serial dilutions of the test compound (typically starting from a final concentration of 15 μM with 3-fold serial dilutions) in duplicate (final DMSO concentration 7%). The plate was pre-incubated for 10 minutes at 25° C. and the reaction initiated by addition of 15 μL [γ-33P]ATP (final concentration 10 μM).
The reaction was stopped after […] by the addition of 30 μL 0.1M phosphoric acid containing 2 mM ATP. A multiscreen phosphocellulose filter 96-well plate (Millipore, Cat no. MAPHN0B50) was pretreated with 100 μL 0.2M phosphoric acid prior to the addition of 45 μL of the stopped assay mixture. The plate was washed with 5×200 μL 0.2M phosphoric acid. After drying, 100 μL Optiphase ‘SuperMix’ liquid scintillation cocktail (Perkin Elmer) was added to the well prior to scintillation counting (1450 Microbeta Liquid Scintillation Counter, Wallac).
After removing mean background values for all of the data points, Ki(app) data were calculated from non-linear regression analysis of the initial rate data using the Prism software package (GraphPad Prism version 3.0cx for Macintosh, GraphPad Software, San Diego Calif., USA).

The subject of test [2] is HCT116 colorectal cancer cells. Put plainly: Cisplatin Sensitization Assay (96 h cell viability MTS). It is filed as cell-based. To be noted: concentration of compound required to reduce the IC50 of Cisplatin alone by at least 3-fold; HCT116, 96 h MTS. The method, then: Compounds can be screened for their ability to sensitize HCT116 colorectal cancer cells to Cisplatin using a 96 h cell viability (MTS) assay. […] Compounds and Cisplatin are then both added simultaneously to the cell media in 2-fold serial dilutions from a top final concentration of 10 μM as a full matrix of concentrations in a final cell volume of 200 μl, and the cells are then incubated at 37° C. in 5% CO2. After 96 h, 40 μl of MTS reagent (Promega G358a) is added to each well and the cells are incubated for 1 h at 37° C. in 5% CO2. Finally, absorbance is measured at 490 nm using a SpectraMax Plus 384 reader (Molecular Devices) and the concentration of compound required to reduce the IC50 of Cisplatin alone by at least 3-fold (to 1 decimal place) can be reported.

Molecules are shown by their SMILES.

T1 sequence (Q13535 whole entry): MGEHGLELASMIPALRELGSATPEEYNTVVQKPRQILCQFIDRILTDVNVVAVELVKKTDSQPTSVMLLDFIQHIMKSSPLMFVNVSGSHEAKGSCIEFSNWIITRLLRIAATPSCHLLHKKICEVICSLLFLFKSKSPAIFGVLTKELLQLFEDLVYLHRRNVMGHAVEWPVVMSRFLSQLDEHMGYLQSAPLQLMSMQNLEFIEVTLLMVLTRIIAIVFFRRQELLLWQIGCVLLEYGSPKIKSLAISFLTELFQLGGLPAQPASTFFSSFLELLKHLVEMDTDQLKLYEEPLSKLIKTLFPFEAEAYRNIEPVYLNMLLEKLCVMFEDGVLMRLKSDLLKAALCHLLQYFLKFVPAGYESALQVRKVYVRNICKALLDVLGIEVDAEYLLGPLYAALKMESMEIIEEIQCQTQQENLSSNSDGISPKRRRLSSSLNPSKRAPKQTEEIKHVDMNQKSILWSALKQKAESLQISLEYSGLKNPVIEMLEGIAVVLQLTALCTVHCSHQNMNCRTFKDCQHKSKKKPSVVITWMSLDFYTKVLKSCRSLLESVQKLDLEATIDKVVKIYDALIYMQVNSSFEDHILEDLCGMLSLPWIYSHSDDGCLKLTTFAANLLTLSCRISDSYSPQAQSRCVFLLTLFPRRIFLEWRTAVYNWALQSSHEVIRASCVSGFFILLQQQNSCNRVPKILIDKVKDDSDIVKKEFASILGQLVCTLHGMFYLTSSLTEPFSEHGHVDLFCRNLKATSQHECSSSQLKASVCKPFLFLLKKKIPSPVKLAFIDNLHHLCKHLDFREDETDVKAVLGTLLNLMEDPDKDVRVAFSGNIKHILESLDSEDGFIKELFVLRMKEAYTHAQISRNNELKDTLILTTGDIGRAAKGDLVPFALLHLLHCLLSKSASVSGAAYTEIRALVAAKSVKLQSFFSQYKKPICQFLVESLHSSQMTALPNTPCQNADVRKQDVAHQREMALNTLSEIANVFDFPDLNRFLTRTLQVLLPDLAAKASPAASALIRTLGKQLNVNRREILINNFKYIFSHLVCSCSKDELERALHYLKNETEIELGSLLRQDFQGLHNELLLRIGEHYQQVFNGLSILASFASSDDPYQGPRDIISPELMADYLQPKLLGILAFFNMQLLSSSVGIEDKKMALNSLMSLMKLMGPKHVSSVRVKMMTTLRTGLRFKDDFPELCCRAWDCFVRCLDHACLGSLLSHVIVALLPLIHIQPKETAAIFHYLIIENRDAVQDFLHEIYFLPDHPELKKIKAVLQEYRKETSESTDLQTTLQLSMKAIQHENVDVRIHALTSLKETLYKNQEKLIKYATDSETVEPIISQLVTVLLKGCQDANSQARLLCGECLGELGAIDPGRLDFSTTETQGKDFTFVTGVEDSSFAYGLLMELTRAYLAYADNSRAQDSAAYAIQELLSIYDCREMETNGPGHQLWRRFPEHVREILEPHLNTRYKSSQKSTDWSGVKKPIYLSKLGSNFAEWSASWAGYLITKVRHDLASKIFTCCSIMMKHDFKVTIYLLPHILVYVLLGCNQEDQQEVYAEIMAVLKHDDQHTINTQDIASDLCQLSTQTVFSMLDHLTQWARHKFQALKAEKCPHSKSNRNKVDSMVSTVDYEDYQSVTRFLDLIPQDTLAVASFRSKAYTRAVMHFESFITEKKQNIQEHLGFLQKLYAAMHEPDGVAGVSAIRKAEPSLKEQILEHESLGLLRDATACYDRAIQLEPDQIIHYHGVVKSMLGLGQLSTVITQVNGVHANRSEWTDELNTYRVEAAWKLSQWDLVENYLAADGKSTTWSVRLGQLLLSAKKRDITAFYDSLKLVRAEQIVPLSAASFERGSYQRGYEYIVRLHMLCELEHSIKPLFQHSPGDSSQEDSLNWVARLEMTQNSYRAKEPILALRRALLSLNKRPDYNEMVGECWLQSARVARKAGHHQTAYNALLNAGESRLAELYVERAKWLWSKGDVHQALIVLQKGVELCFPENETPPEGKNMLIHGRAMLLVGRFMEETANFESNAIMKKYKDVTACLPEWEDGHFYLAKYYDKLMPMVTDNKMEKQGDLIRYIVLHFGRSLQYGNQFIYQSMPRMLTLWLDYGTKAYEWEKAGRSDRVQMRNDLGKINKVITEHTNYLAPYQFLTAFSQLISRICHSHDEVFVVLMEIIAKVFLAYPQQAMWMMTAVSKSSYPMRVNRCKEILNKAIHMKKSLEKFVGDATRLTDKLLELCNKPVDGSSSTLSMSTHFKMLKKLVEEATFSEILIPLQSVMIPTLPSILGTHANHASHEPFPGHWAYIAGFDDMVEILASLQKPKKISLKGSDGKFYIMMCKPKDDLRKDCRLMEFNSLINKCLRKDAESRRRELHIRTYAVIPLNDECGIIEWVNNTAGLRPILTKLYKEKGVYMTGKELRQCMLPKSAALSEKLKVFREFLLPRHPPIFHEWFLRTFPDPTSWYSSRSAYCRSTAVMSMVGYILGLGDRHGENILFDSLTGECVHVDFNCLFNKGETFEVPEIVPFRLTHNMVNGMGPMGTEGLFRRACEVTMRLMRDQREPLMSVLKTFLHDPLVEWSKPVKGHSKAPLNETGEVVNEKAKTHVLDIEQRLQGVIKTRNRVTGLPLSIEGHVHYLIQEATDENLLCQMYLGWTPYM

For the compound `CN1CCC(Oc2ncncc2NC(=O)c2c(N)nn3cc(F)cnc23)CC1` [I-A-5, 2-amino-6-fluoro-N-(4-((1-methylpiperidin-4-yl)oxy)pyrimidin-5-yl)pyrazolo[1,5-a]pyrimidine-3-carboxamide], the Ki in test [1] was 10 to 1000 nM. Besides, the “Cisplatin Sensitization Assay” value in test [2] is on record as “++ (Compounds with a Cisplatin sensitization value >0.02 μM but <0.2 μM are marked with “++.”)”. On the same counts, the results for `CN1CCN(c2cnccc2NC(=O)c2c(N)nn3cc(F)cnc23)CC1` [I-C-2, 2-amino-6-fluoro-N-(3-(4-methylpiperazin-1-yl)pyridin-4-yl)pyrazolo[1,5-a]pyrimidine-3-carboxamide] are 10 to 1000 nM and “++ (Compounds with a Cisplatin sensitization value >0.02 μM but <0.2 μM are marked with “++.”)”.

On to `CN1CC[C@H](Oc2ncncc2NC(=O)c2c(N)nn3cc(F)cnc23)C1` [I-A-11, (S)-2-amino-6-fluoro-N-(4-((1-methylpyrrolidin-3-yl)oxy)pyrimidin-5-yl)pyrazolo[1,5-a]pyrimidine-3-carboxamide], for which the Ki in test [1] was in the range of 1000 to 5000 nM. In addition, the “Cisplatin Sensitization Assay” value in test [2] is “++ (Compounds with a Cisplatin sensitization value >0.02 μM but <0.2 μM are marked with “++.”)”. On the same counts, the results for `Nc1nn2cc(F)cnc2c1C(=O)Nc1cnncc1N1CCN(C2COC2)CC1` [I-B-2, 2-amino-6-fluoro-N-(5-(4-(oxetan-3-yl)piperazin-1-yl)pyridazin-4-yl)pyrazolo[1,5-a]pyrimidine-3-carboxamide] are 10 to 1000 nM and “++ (Compounds with a Cisplatin sensitization value >0.02 μM but <0.2 μM are marked with “++.”)”. Regarding `Nc1nn2cc(F)cnc2c1C(=O)Nc1cnncc1N1CCCC1` [I-B-16, 2-amino-6-fluoro-N-(5-(pyrrolidin-1-yl)pyridazin-4-yl)pyrazolo[1,5-a]pyrimidine-3-carboxamide], the Ki in test [1] is 1000 to 5000 nM. As for `CN(C)[C@H]1CC[C@H](Oc2ncncc2NC(=O)c2c(N)nn3cc(F)cnc23)CC1` [I-A-12, 2-amino-N-(4-(((1r,4r)-4-(dimethylamino)cyclohexyl)oxy)pyrimidin-5-yl)-6-fluoropyrazolo[1,5-a]pyrimidine-3-carboxamide], the Ki in test [1] is 10 to 1000 nM. Moreover, in test [2], the “Cisplatin Sensitization Assay” value is given as “++ (Compounds with a Cisplatin sensitization value >0.02 μM but <0.2 μM are marked with “++.”)”. On the same counts, the results for `Cc1nsc(NC(=O)c2c(N)nn3cc(F)cnc23)c1N1CCCC1` [I-E-21, 2-amino-6-fluoro-N-(3-methyl-4-(pyrrolidin-1-yl)isothiazol-5-yl)pyrazolo[1,5-a]pyrimidine-3-carboxamide] are 10 to 1000 nM and “++ (Compounds with a Cisplatin sensitization value >0.02 μM but <0.2 μM are marked with “++.”)”. On to `Nc1nn2cc(F)cnc2c1C(=O)Nc1cncn1-c1ccccc1` [I-D-2, 2-amino-6-fluoro-N-(1-phenyl-1H-imidazol-5-yl)pyrazolo[1,5-a]pyrimidine-3-carboxamide], for which the Ki in test [1] was 10 to 1000 nM. For the same compound, the “Cisplatin Sensitization Assay” value in test [2] is given as “+++ (Compounds with a Cisplatin sensitization value of <0.02 μM are marked with “+++.”)”.

For `N#CCc1cnc2c(C(=O)Nc3cncn3Cc3ccccc3)c(N)nn2c1` [I-D-1, 2-amino-N-(1-benzyl-1H-imidazol-5-yl)-6-(cyanomethyl)pyrazolo[1,5-a]pyrimidine-3-carboxamide], in test [1], the Ki was below 10 nM. Besides, the “Cisplatin Sensitization Assay” value in test [2] was “+++ (Compounds with a Cisplatin sensitization value of <0.02 μM are marked with “+++.”)”. With `CN1CCN(C(=O)C2CCN(c3cnccc3NC(=O)c3c(N)nn4cc(F)cnc34)CC2)CC1` [I-C-3, 2-amino-6-fluoro-N-(3-(4-(4-methylpiperazine-1-carbonyl)piperidin-1-yl)pyridin-4-yl)pyrazolo[1,5-a]pyrimidine-3-carboxamide], the Ki in test [1] was 10 to 1000 nM. Further, in test [2], the “Cisplatin Sensitization Assay” value was “++ (Compounds with a Cisplatin sensitization value >0.02 μM but <0.2 μM are marked with “++.”)”.

In the case of `Nc1nn2cc(F)cnc2c1C(=O)Nc1cncnc1O[C@H]1CN2CCC1CC2` [I-A-3, (R)-2-amino-6-fluoro-N-(4-(quinuclidin-3-yloxy)pyrimidin-5-yl)pyrazolo[1,5-a]pyrimidine-3-carboxamide], the Ki in test [1] fell in the range of 10 to 1000 nM. Also, the “Cisplatin Sensitization Assay” value in test [2] is “++ (Compounds with a Cisplatin sensitization value >0.02 μM but <0.2 μM are marked with “++.”)”. The like results for `CN1CCC(Oc2ncncc2NC(=O)c2c(N)nn3cc(Cl)cnc23)CC1` [I-A-6, 2-amino-6-chloro-N-(4-((1-methylpiperidin-4-yl)oxy)pyrimidin-5-yl)pyrazolo[1,5-a]pyrimidine-3-carboxamide] were, in that order, 1000 to 5000 nM and “++ (Compounds with a Cisplatin sensitization value >0.02 μM but <0.2 μM are marked with “++.”)”. Consider `Nc1nn2cc(F)cnc2c1C(=O)Nc1ccncc1N1CCC(C(=O)N2CCC(N3CCCC3)CC2)CC1` [I-C-8, 2-amino-6-fluoro-N-(3-(4-(4-(pyrrolidin-1-yl)piperidine-1-carbonyl)piperidin-1-yl)pyridin-4-yl)pyrazolo[1,5-a]pyrimidine-3-carboxamide], for which, in test [1], the Ki was 10 to 1000 nM. In addition, in test [2], the “Cisplatin Sensitization Assay” value is given as “+++ (Compounds with a Cisplatin sensitization value of <0.02 μM are marked with “+++.”)”. Regarding `CN1CCC[C@H](Oc2ncncc2NC(=O)c2c(N)nn3cc(F)cnc23)C1` [I-A-2, (S)-2-amino-6-fluoro-N-(4-((1-methylpiperidin-3-yl)oxy)pyrimidin-5-yl)pyrazolo[1,5-a]pyrimidine-3-carboxamide], the Ki in test [1] was in the range of 10 to 1000 nM. For the same compound, the “Cisplatin Sensitization Assay” value in test [2] is “+ (Compounds with a Cisplatin sensitization value >0.2 μM but <5 μM are marked with “+.”)”. On the same counts, the results for `CS(=O)(=O)C1CCN(c2cnccc2NC(=O)c2c(N)nn3cc(F)cnc23)CC1` [I-C-10, 2-amino-6-fluoro-N-(3-(4-(methylsulfonyl)piperidin-1-yl)pyridin-4-yl)pyrazolo[1,5-a]pyrimidine-3-carboxamide] are below 10 nM and “+++ (Compounds with a Cisplatin sensitization value of <0.02 μM are marked with “+++.”)”. The like results for `CN1CCN(c2ncncc2NC(=O)c2c(N)nn3cc(F)cnc23)CC1` [I-A-20, 2-amino-6-fluoro-N-(4-(4-methylpiperazin-1-yl)pyrimidin-5-yl)pyrazolo[1,5-a]pyrimidine-3-carboxamide] were, in that order, 1000 to 5000 nM and “+ (Compounds with a Cisplatin sensitization value >0.2 μM but <5 μM are marked with “+.”)”. `COc1ncncc1NC(=O)c1c(N)nn2ccc(OCCN(C)C)nc12` [I-A-16, 2-amino-5-(2-(dimethylamino)ethoxy)-N-(4-methoxypyrimidin-5-yl)pyrazolo[1,5-a]pyrimidine-3-carboxamide]: the Ki in test [1] was 1000 to 5000 nM. Besides, the “Cisplatin Sensitization Assay” value in test [2] was “+ (Compounds with a Cisplatin sensitization value >0.2 μM but <5 μM are marked with “+.”)”. On the same counts, the results for `Cc1nsc(NC(=O)c2c(N)nn3cc(F)cnc23)c1C1CC1` [I-E-2, 2-amino-N-(4-cyclopropyl-3-methylisothiazol-5-yl)-6-fluoropyrazolo[1,5-a]pyrimidine-3-carboxamide] are 10 to 1000 nM and “+++ (Compounds with a Cisplatin sensitization value of <0.02 μM are marked with “+++.”)”.

`CN1CCC[C@@H](Oc2ncncc2NC(=O)c2c(N)nn3cc(F)cnc23)C1` [I-A-1, (R)-2-amino-6-fluoro-N-(4-((1-methylpiperidin-3-yl)oxy)pyrimidin-5-yl)pyrazolo[1,5-a]pyrimidine-3-carboxamide]: in test [1], the Ki fell in the range of 1000 to 5000 nM. Also, the “Cisplatin Sensitization Assay” value in test [2] is “+ (Compounds with a Cisplatin sensitization value >0.2 μM but <5 μM are marked with “+.”)”. Take `CN1CCN(C2CCN(c3cnncc3NC(=O)c3c(N)nn4cc(F)cnc34)CC2)CC1` [I-B-24, 2-amino-6-fluoro-N-(5-(4-(4-methylpiperazin-1-yl)piperidin-1-yl)pyridazin-4-yl)pyrazolo[1,5-a]pyrimidine-3-carboxamide]: the Ki in test [1] is 10 to 1000 nM. For the compound `COc1cnccc1NC(=O)c1c(N)nn2ccc(C(F)(F)F)nc12` [I-C-4, 2-amino-N-(3-methoxypyridin-4-yl)-5-(trifluoromethyl)pyrazolo[1,5-a]pyrimidine-3-carboxamide], the Ki in test [1] is 10 to 1000 nM.
